Tested on: patients with chronic constipation
Assay: Clinical trial, secondary efficacy RESP12: increase of 1 or more CSBM/week over baseline after 12 weeks of treatment, by subgroup and genotype
Format: in vivo, human
Settings: for Odds Ratio: 6-mg bid vs placebo; for % Responders T6 / Odds Ratio (T6 v P) / % Responders: 6-mg bid
Description: Introduction. A clinical trial was performed to evaluate the efficacy of tegaserod (Zelmac®/Zelnorm™) at 6 mg bid (12 mg/day) or 2 mg bid (4 mg/day) vs. placebo by measuring the number of complete spontaneous bowel movements (CSBM) during the first 4 weeks of treatment. Secondary objectives included evaluating the number of CSBM during the entire 12-week treatment period, bowel habits, laxative use, and safety and tolerability issues. The clinical trial design consisted of a 2-week baseline period without medication, a 12-week, randomized, double-blind, placebo-controlled treatment period, and a 4-week withdrawal period without study medication. As part of the clinical trial, DNA was collected from patients at screening for pharmacogenetic analysis to evaluate genetic polymorphisms relating to drug targets and disease aetiology.
Clinical assessments. […] The primary efficacy endpoint evaluated was the increase of 1 or more CSBM/week over baseline after 4 weeks of treatment. A secondary endpoint evaluated in this genotyping study was RESP12, the increase of 1 of more CSBM/week over baseline after 12 weeks of treatment. Patients were classified as responders if they met these criteria and had completed at least 7 days of treatment. Additional secondary efficacy assessments were evaluated based on the weekly diary assessments, such as bothersome constipation, bothersome abdominal pain, and satisfaction with bowel habits at the end of the 12-week treatment period (using the baseline value as a co-variant for analysis).
Statistical analysis. Statistical analysis was performed using SAS version 8.2 (The SAS Institute, Cary, N.C., USA). Analysis methods included Fisher's Exact tests, analysis of Covariance (ANCOVA), logistic regression, and Mantel-Haenzel tests to determine odds ratios and 95% confidence intervals, with significance established at p<0.05. Calculation of linkage disequilibrium was performed using the GOLD (graphical overview of linkage disequilibrium) method described by Abecasis & Cookson, Bioinformatics 16: 182-3 (2000).
Secondary efficacy endpoint: response after 12 weeks of treatment. The same comparison as above was performed using the secondary efficacy endpoint of a mean increase of 1 or more CSBM/week over baseline after 12 weeks of treatment. The results for the 12 individual “high responder” SNPs are presented in TABLE 9 and the results using the comparison of individuals with or without at least one of the twelve SNPs is presented in TABLE 10.

[1] = All Caucasians (ITT, >=7 days), Age <65, M + F
[2] = All Caucasians (ITT, >=7 days), Age >=65, M + F
[3] = All Caucasians (ITT, >=7 days), Age All, Female
[4] = All Caucasians (ITT, >=7 days), Age All, M + F
[5] = All Caucasians (ITT, >=7 days), Age All, Male
[6] = All genotyped (ITT, >=7 days), Age <65, M + F
[7] = All genotyped (ITT, >=7 days), Age >=65, M + F
[8] = All genotyped (ITT, >=7 days), Age All, Female
[9] = All genotyped (ITT, >=7 days), Age All, M + F
[10] = All genotyped (ITT, >=7 days), Age All, Male
[11] = All patients (ITT, >=7 days), Age <65, M + F
[12] = All patients (ITT, >=7 days), Age >=65, M + F
[13] = All patients (ITT, >=7 days), Age All, Female
[14] = All patients (ITT, >=7 days), Age All, M + F
[15] = All patients (ITT, >=7 days), Age All, Male
[16] = Caucasians genotyped (ITT, >=7 days), Age <65, M + F
[17] = Caucasians genotyped (ITT, >=7 days), Age >=65, M + F
[18] = Caucasians genotyped (ITT, >=7 days), Age All, Female
[19] = Caucasians genotyped (ITT, >=7 days), Age All, M + F
[20] = Caucasians genotyped (ITT, >=7 days), Age All, Male
[21] = Female (All ages), 0-12 of the 12 SNPs
[22] = Female (All ages), 0 of the 12 SNPs
[23] = Female (All ages), 1-12 of the 12 SNPs

[H]/N=C(/NCCCCC)N/N=C/c1c[nH]c2ccc(OC)cc12 [tegaserod, Tegaserod]
Odds Ratio [1]: 2.8
Odds Ratio [2]: 1.4
Odds Ratio [3]: 2.5
Odds Ratio [4]: 2.5
Odds Ratio [5]: 2.5
Odds Ratio [6]: 2.6
Odds Ratio [7]: 2.6
Odds Ratio [8]: 2.5
Odds Ratio [9]: 2.6
Odds Ratio [10]: 2.9
Odds Ratio [11]: 2.3
Odds Ratio [12]: 1.6
Odds Ratio [13]: 2.2
Odds Ratio [14]: 2.3
Odds Ratio [15]: 2.6
Odds Ratio [16]: 3.0
Odds Ratio [17]: 2.3
Odds Ratio [18]: 2.8
Odds Ratio [19]: 2.8
Odds Ratio [20]: 3.0
% Responders T6 (0 of 14 SNPs): 39%
Odds Ratio (T6 v P) (0 of 14 SNPs): 1.2
% Responders T6 (>=1 of 14 SNPs): 54%
Odds Ratio (T6 v P) (>=1 of 14 SNPs): 4.4
% Responders T6 (AQP3 (1838) genotype CC): 47%
Odds Ratio (T6 v P) (AQP3 (1838) genotype CC): 2.7
% Responders T6 (AQP3 (1838) genotype CG): 49%
Odds Ratio (T6 v P) (AQP3 (1838) genotype CG): 2.5
% Responders T6 (AQP3 (1838) genotype GG): 64%
Odds Ratio (T6 v P) (AQP3 (1838) genotype GG): 8.1
% Responders [1]: 48%
% Responders [2]: 38%
% Responders [3]: 47%
% Responders [4]: 47%
% Responders [5]: 45%
% Responders [6]: 47%
% Responders [7]: 56%
% Responders [8]: 47%
% Responders [9]: 47%
% Responders [10]: 52%
% Responders [11]: 46%
% Responders [12]: 40%
% Responders [13]: 46%
% Responders [14]: 46%
% Responders [15]: 43%
% Responders [16]: 49%
% Responders [17]: 53%
% Responders [18]: 48%
% Responders [19]: 49%
% Responders [20]: 57%
% Responders T6 [21]: 48%
Odds Ratio (T6 v P) [21]: 2.8
% Responders T6 [22]: 36%
Odds Ratio (T6 v P) [22]: 1.4
% Responders T6 [23]: 61%
Odds Ratio (T6 v P) [23]: 5.5
% Responders T6 (HTR3B (3755) genotype AA): 49%
Odds Ratio (T6 v P) (HTR3B (3755) genotype AA): 3.0
% Responders T6 (HTR3B (3755) genotype AC): 47%
Odds Ratio (T6 v P) (HTR3B (3755) genotype AC): 2.3
% Responders T6 (HTR3B (3755) genotype CC): 67%
Odds Ratio (T6 v P) (HTR3B (3755) genotype CC): 5.1
% Responders T6 (HTR4 (1746) genotype CC): 44%
Odds Ratio (T6 v P) (HTR4 (1746) genotype CC): 3.1
% Responders T6 (HTR4 (1746) genotype CT): 49%
Odds Ratio (T6 v P) (HTR4 (1746) genotype CT): 2.6
% Responders T6 (HTR4 (1746) genotype TT): 70%
Odds Ratio (T6 v P) (HTR4 (1746) genotype TT): 3.2
% Responders T6 (HTR4 (3743) genotype AA): 48%
Odds Ratio (T6 v P) (HTR4 (3743) genotype AA): 3.7
% Responders T6 (HTR4 (3743) genotype AC): 52%
Odds Ratio (T6 v P) (HTR4 (3743) genotype AC): 4.7
% Responders T6 (HTR4 (3743) genotype CC): 78%
Odds Ratio (T6 v P) (HTR4 (3743) genotype CC): 8.2
% Responders T6 (HTR4 (3747) genotype AA): 41%
Odds Ratio (T6 v P) (HTR4 (3747) genotype AA): 2.7
% Responders T6 (HTR4 (3747) genotype AT): 54%
Odds Ratio (T6 v P) (HTR4 (3747) genotype AT): 3.1
% Responders T6 (HTR4 (3747) genotype TT): 65%
Odds Ratio (T6 v P) (HTR4 (3747) genotype TT): 3.0
% Responders T6 (HTR4 (3753) genotype CC): 45%

Reference: patent US20090118350A1, “Biomarkers for Identifying Efficacy of Tegaserod in Patients with Chronic Constipation” (priority 2005, published 2009)
